Test results: patent publication US20020137929A1, “1 - (3-heterocyclylphenyl) isothiourea, -isourea, -guanidine and -amidine herbicidal agents” (Intellectual Property Department, BASF Aktiengesellschaft, priority 1998, published 2002)

Experiments:
CYPSE (Flatsedge) = assay: Preemergence weed control under flooded paddy conditions; assay type: in vivo, Cyperus serotinus; details: rated 3-4 weeks after treatment
In short: (§1)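 Greenhouse paddy assay. Acetone/water (50/50 v/v) solutions dosed into flood water, equivalent to about 0.0313 to 0.500 kg/ha active ingredient, over seeds planted 0.5 cm deep in silt loam. Score: 0-9 visual, based on stand, vigor, malformation, size and chlorosis, 3 to 4 weeks after treatment.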

ZEAMX (Corn, Field) = assay: Postemergence herbicidal evaluation; assay type: in vivo, Zea mays; details: postemergence
In short: (§2)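 Herbicidal effect was judged by eye on a 0–9 scale covering stand, vigor, deformity, size and chlorosis, compared with controls, four to five weeks after seedlings about two weeks old were sprayed (40 psi, ~0.0156–0.500 kg/ha).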

SETVI (Foxtail, Green) = assay: Preemergence herbicidal evaluation; assay type: in vivo, Setaria viridis; details: rated 4-5 weeks after treatment
In short: (§3)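 Greenhouse preemergence test: seed-soil mix sown on ~1 inch soil; aqueous acetone spray at equivalent of ~0.0156–0.500 kg/ha; greenhouse-held and watered; scored 0–9 visually at 4–5 weeks.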

CASOB (Sicklepod) = assay: Preemergence herbicidal evaluation; assay type: in vivo, Cassia obtusifolia; details: rated 4-5 weeks after treatment
In short: as §3

AMBEL (Ragweed, Common) [1] = assay: Postemergence herbicidal evaluation; assay type: in vivo, Ambrosia artemisifolia; details: postemergence
In short: as §2

[2] = system: ECHORC (Watergrass (Calif.)); assay: Postemergence weed control under flooded paddy conditions; assay type: in vivo, Echinochloa oryzoides; details: postemergence weeds, 3-4 weeks after treatment
In short: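 Weeds 3 to 5 cm tall and rice seedlings at the 1.5 to 2.5 leaf stage were flooded, with water held 1.5 to 3 cm above the soil. Compounds in 50/50 v/v aqueous/acetone went into the flood water at about 0.0313 to 0.500 kg/ha. Visual 0-9 ratings versus control were made 3 to 4 weeks later.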

AMBEL (Ragweed, Common) [3] = assay: Preemergence herbicidal evaluation; assay type: in vivo, Ambrosia artemisifolia; details: rated 4-5 weeks after treatment
In short: as §3

[4] = system: GLXMAW (Soybean, Williams); assay: Preemergence herbicidal evaluation; assay type: in vivo, Glycine max, (L.) Merr. cv Williams; details: rated 4-5 weeks after treatment
In short: as §3

ECHCG (Barnyardgrass) = assay: Preemergence herbicidal evaluation; assay type: in vivo, Echinochloa crus-galli; details: rated 4-5 weeks after treatment
In short: as §3

[5] = system: SAGPY (Arrowhead (Pygmaea)); assay: Preemergence weed control under flooded paddy conditions; assay type: in vivo, Sagittaria pygmaea; details: rated 3-4 weeks after treatment
In short: as §1

ABUTH (Velvetleaf) = assay: Preemergence herbicidal evaluation; assay type: in vivo, Abutilon theophrasti; details: rated 4-5 weeks after treatment
In short: as §3

GALAP (Galium) = assay: Preemergence herbicidal evaluation; assay type: in vivo, Galium aparine; details: rated 4-5 weeks after treatment
In short: as §3

[6] = system: GLXMAW (Soybean, Williams); assay: Postemergence herbicidal evaluation; assay type: in vivo, Glycine max, (L.) Merr. cv Williams; details: postemergence
In short: as §2

CN1C(=O)CSC1=Nc1cc(N2C(=O)C3=C(CCCC3)C2=O)c(F)cc1Cl [Compound 1, N-{4-chloro-2-fluoro-5-[(3-methyl-4-oxo-2-thiazolidinylidene)amino]phenyl}-1-cyclohexene-1,2-dicarboximide]
Herbicidal rating CYPSE (CYPSE (Flatsedge); 0.0313 kg/ha): 0.0
Herbicidal rating CYPSE (CYPSE (Flatsedge); 0.0625 kg/ha): 0.0
Herbicidal rating CYPSE (CYPSE (Flatsedge); 0.1250 kg/ha): 0.0
Herbicidal rating CYPSE (CYPSE (Flatsedge); 0.2500 kg/ha): 2.0
Herbicidal rating CYPSE (CYPSE (Flatsedge); 0.5000 kg/ha): 8.0
ZEAMX herbicidal rating (ZEAMX (Corn, Field); rate 0.0157 kg/ha): 2.5
ZEAMX herbicidal rating (ZEAMX (Corn, Field); rate 0.0313 kg/ha): 3.5
ZEAMX herbicidal rating (ZEAMX (Corn, Field); rate 0.0625 kg/ha): 4.0
ZEAMX herbicidal rating (ZEAMX (Corn, Field); rate 0.1250 kg/ha): 5.0
ZEAMX herbicidal rating (ZEAMX (Corn, Field); rate 0.2500 kg/ha): 5.5
ZEAMX herbicidal rating (ZEAMX (Corn, Field); rate 0.5000 kg/ha): 6.5
SETVI preemergence herbicidal rating (SETVI (Foxtail, Green); rate 0.0313 kg/ha): 5.0
SETVI preemergence herbicidal rating (SETVI (Foxtail, Green); rate 0.0625 kg/ha): 9.0
SETVI preemergence herbicidal rating (SETVI (Foxtail, Green); rate 0.1250 kg/ha): 8.0
SETVI preemergence herbicidal rating (SETVI (Foxtail, Green); rate 0.2500 kg/ha): 9.0
SETVI preemergence herbicidal rating (SETVI (Foxtail, Green); rate 0.5000 kg/ha): 8.0
CASOB preemergence herbicidal rating (CASOB (Sicklepod); rate 0.0313 kg/ha): 0.0
CASOB preemergence herbicidal rating (CASOB (Sicklepod); rate 0.0625 kg/ha): 3.0
CASOB preemergence herbicidal rating (CASOB (Sicklepod); rate 0.1250 kg/ha): 2.0
CASOB preemergence herbicidal rating (CASOB (Sicklepod); rate 0.2500 kg/ha): 6.0
CASOB preemergence herbicidal rating (CASOB (Sicklepod); rate 0.5000 kg/ha): 6.7
AMBEL herbicidal rating (AMBEL (Ragweed, Common) [1]; rate 0.0157 kg/ha): 2.0
AMBEL herbicidal rating (AMBEL (Ragweed, Common) [1]; rate 0.0313 kg/ha): 3.0
AMBEL herbicidal rating (AMBEL (Ragweed, Common) [1]; rate 0.0625 kg/ha): 3.0
AMBEL herbicidal rating (AMBEL (Ragweed, Common) [1]; rate 0.1250 kg/ha): 5.0
AMBEL herbicidal rating (AMBEL (Ragweed, Common) [1]; rate 0.2500 kg/ha): 7.0
AMBEL herbicidal rating (AMBEL (Ragweed, Common) [1]; rate 0.5000 kg/ha): 8.0
Herbicidal rating ECHORC ([2]; rate 0.0313 kg/ha): 1.0
Herbicidal rating ECHORC ([2]; rate 0.0625 kg/ha): 2.0
Herbicidal rating ECHORC ([2]; rate 0.1250 kg/ha): 3.0
Herbicidal rating ECHORC ([2]; rate 0.2500 kg/ha): 3.5
Herbicidal rating ECHORC ([2]; rate 0.5000 kg/ha): 5.5
AMBEL preemergence herbicidal rating (AMBEL (Ragweed, Common) [3]; rate 0.0313 kg/ha): 0.0
AMBEL preemergence herbicidal rating (AMBEL (Ragweed, Common) [3]; rate 0.0625 kg/ha): 2.0
AMBEL preemergence herbicidal rating (AMBEL (Ragweed, Common) [3]; rate 0.1250 kg/ha): 5.0
AMBEL preemergence herbicidal rating (AMBEL (Ragweed, Common) [3]; rate 0.2500 kg/ha): 5.0
AMBEL preemergence herbicidal rating (AMBEL (Ragweed, Common) [3]; rate 0.5000 kg/ha): 6.7
GLXMAW preemergence herbicidal rating ([4]; rate 0.0313 kg/ha): 0.0
GLXMAW preemergence herbicidal rating ([4]; rate 0.0625 kg/ha): 2.0
GLXMAW preemergence herbicidal rating ([4]; rate 0.1250 kg/ha): 2.0
GLXMAW preemergence herbicidal rating ([4]; rate 0.2500 kg/ha): 4.0
GLXMAW preemergence herbicidal rating ([4]; rate 0.5000 kg/ha): 3.0
ECHCG preemergence herbicidal rating (ECHCG (Barnyardgrass); rate 0.0313 kg/ha): 2.0
ECHCG preemergence herbicidal rating (ECHCG (Barnyardgrass); rate 0.0625 kg/ha): 5.0
ECHCG preemergence herbicidal rating (ECHCG (Barnyardgrass); rate 0.1250 kg/ha): 6.0
ECHCG preemergence herbicidal rating (ECHCG (Barnyardgrass); rate 0.2500 kg/ha): 5.0
ECHCG preemergence herbicidal rating (ECHCG (Barnyardgrass); rate 0.5000 kg/ha): 7.7
Herbicidal rating SAGPY ([5]; 0.0313 kg/ha): 0.0
Herbicidal rating SAGPY ([5]; 0.0625 kg/ha): 0.0
Herbicidal rating SAGPY ([5]; 0.1250 kg/ha): 0.0
Herbicidal rating SAGPY ([5]; 0.2500 kg/ha): 0.0
Herbicidal rating SAGPY ([5]; 0.5000 kg/ha): 0.0
ABUTH preemergence herbicidal rating (ABUTH (Velvetleaf); rate 0.0313 kg/ha): 5.0
ABUTH preemergence herbicidal rating (ABUTH (Velvetleaf); rate 0.0625 kg/ha): 9.0
ABUTH preemergence herbicidal rating (ABUTH (Velvetleaf); rate 0.1250 kg/ha): 9.0
ABUTH preemergence herbicidal rating (ABUTH (Velvetleaf); rate 0.2500 kg/ha): 9.0
ABUTH preemergence herbicidal rating (ABUTH (Velvetleaf); rate 0.5000 kg/ha): 9.0
GALAP preemergence herbicidal rating (GALAP (Galium); rate 0.0313 kg/ha): 9.0
GALAP preemergence herbicidal rating (GALAP (Galium); rate 0.0625 kg/ha): 7.0
GALAP preemergence herbicidal rating (GALAP (Galium); rate 0.1250 kg/ha): 9.0
GALAP preemergence herbicidal rating (GALAP (Galium); rate 0.2500 kg/ha): 9.0
GALAP preemergence herbicidal rating (GALAP (Galium); rate 0.5000 kg/ha): 8.0
GLXMAW herbicidal rating ([6]; rate 0.0157 kg/ha): 4.0
GLXMAW herbicidal rating ([6]; rate 0.0313 kg/ha): 4.5
GLXMAW herbicidal rating ([6]; rate 0.0625 kg/ha): 4.5
GLXMAW herbicidal rating ([6]; rate 0.1250 kg/ha): 5.0
GLXMAW herbicidal rating ([6]; rate 0.2500 kg/ha): 5.5
GLXMAW herbicidal rating ([6]; rate 0.5000 kg/ha): 6.0

CN1C(=O)C(F)SC1=Nc1cc(N2C(=O)C3=C(CCCC3)C2=O)c(F)cc1Cl (stereo not shown) [Compound 5, N-{4-chloro-2-fluoro-5-[(5-fluoro-3-methyl-4-oxo-2-thiazolidinylidene)amino]phenyl}-1-cyclohexene-1,2-dicarboximide]
Herbicidal rating CYPSE (CYPSE (Flatsedge); 0.1250 kg/ha): 0.0
Herbicidal rating CYPSE (CYPSE (Flatsedge); 0.2500 kg/ha): 0.0
Herbicidal rating CYPSE (CYPSE (Flatsedge); 0.5000 kg/ha): 1.0
ZEAMX herbicidal rating (ZEAMX (Corn, Field); rate 0.0157 kg/ha): 3.5
ZEAMX herbicidal rating (ZEAMX (Corn, Field); rate 0.0313 kg/ha): 3.5
ZEAMX herbicidal rating (ZEAMX (Corn, Field); rate 0.0625 kg/ha): 4.0
ZEAMX herbicidal rating (ZEAMX (Corn, Field); rate 0.1250 kg/ha): 3.5
ZEAMX herbicidal rating (ZEAMX (Corn, Field); rate 0.2500 kg/ha): 4.0
ZEAMX herbicidal rating (ZEAMX (Corn, Field); rate 0.5000 kg/ha): 3.5
SETVI preemergence herbicidal rating (SETVI (Foxtail, Green); rate 0.0625 kg/ha): 0.0
SETVI preemergence herbicidal rating (SETVI (Foxtail, Green); rate 0.1250 kg/ha): 2.0
SETVI preemergence herbicidal rating (SETVI (Foxtail, Green); rate 0.2500 kg/ha): 6.0
SETVI preemergence herbicidal rating (SETVI (Foxtail, Green); rate 0.5000 kg/ha): 9.0
CASOB preemergence herbicidal rating (CASOB (Sicklepod); rate 0.0625 kg/ha): 0.0
CASOB preemergence herbicidal rating (CASOB (Sicklepod); rate 0.1250 kg/ha): 0.0
CASOB preemergence herbicidal rating (CASOB (Sicklepod); rate 0.2500 kg/ha): 0.0
CASOB preemergence herbicidal rating (CASOB (Sicklepod); rate 0.5000 kg/ha): 0.0
AMBEL herbicidal rating (AMBEL (Ragweed, Common) [1]; rate 0.0157 kg/ha): 0.0
AMBEL herbicidal rating (AMBEL (Ragweed, Common) [1]; rate 0.0313 kg/ha): 0.0
AMBEL herbicidal rating (AMBEL (Ragweed, Common) [1]; rate 0.0625 kg/ha): 0.0
AMBEL herbicidal rating (AMBEL (Ragweed, Common) [1]; rate 0.1250 kg/ha): 0.0
AMBEL herbicidal rating (AMBEL (Ragweed, Common) [1]; rate 0.2500 kg/ha): 2.0
AMBEL herbicidal rating (AMBEL (Ragweed, Common) [1]; rate 0.5000 kg/ha): 9.0
Herbicidal rating ECHORC ([2]; rate 0.1250 kg/ha): 0.5
Herbicidal rating ECHORC ([2]; rate 0.2500 kg/ha): 1.0
Herbicidal rating ECHORC ([2]; rate 0.5000 kg/ha): 2.0
AMBEL preemergence herbicidal rating (AMBEL (Ragweed, Common) [3]; rate 0.0625 kg/ha): 0.0
AMBEL preemergence herbicidal rating (AMBEL (Ragweed, Common) [3]; rate 0.1250 kg/ha): 0.0
AMBEL preemergence herbicidal rating (AMBEL (Ragweed, Common) [3]; rate 0.2500 kg/ha): 0.0
AMBEL preemergence herbicidal rating (AMBEL (Ragweed, Common) [3]; rate 0.5000 kg/ha): 0.0
ECHCG preemergence herbicidal rating (ECHCG (Barnyardgrass); rate 0.0625 kg/ha): 0.0
ECHCG preemergence herbicidal rating (ECHCG (Barnyardgrass); rate 0.1250 kg/ha): 2.0
ECHCG preemergence herbicidal rating (ECHCG (Barnyardgrass); rate 0.2500 kg/ha): 6.0
ECHCG preemergence herbicidal rating (ECHCG (Barnyardgrass); rate 0.5000 kg/ha): 7.0
Herbicidal rating SAGPY ([5]; 0.1250 kg/ha): 0.0
Herbicidal rating SAGPY ([5]; 0.2500 kg/ha): 0.0
Herbicidal rating SAGPY ([5]; 0.5000 kg/ha): 0.0
ABUTH preemergence herbicidal rating (ABUTH (Velvetleaf); rate 0.0625 kg/ha): 0.0
ABUTH preemergence herbicidal rating (ABUTH (Velvetleaf); rate 0.1250 kg/ha): 0.0
ABUTH preemergence herbicidal rating (ABUTH (Velvetleaf); rate 0.2500 kg/ha): 0.0
ABUTH preemergence herbicidal rating (ABUTH (Velvetleaf); rate 0.5000 kg/ha): 0.0
